According to patent US20210236487A1, “Methods and Compositions for Treatment of Cancer with PARP Inhibitors” (Rush University Medical Center, priority 2018, published 2021):
Where “and” joins values, the source holds several entries; their conditions need not be identical. Equal values may be shown once. Entries after “also recorded” stand apart in the source; their conditions may differ.

Columns and labels:
[1] = test system: ovarian cancer; test: Treatment outcome on olaparib (case series); assay type: in vivo, human
Protocol: (§1) A formal assessment of folic acid level along with a chart review of olaparib treated ovarian cancer patients was conducted to determine the frequency of severe folic acid deficiency in this population and the impact of replacement therapy on outcome. This was an IRB-approved study performed at Rush University Medical Center from Dec. 1, 2016 to Apr. 3, 2017. Data collection was conducted in accordance with good clinical practice guidelines and the provisions of declaration of Helsinki. Data collected included cancer history, date of initiation of olaparib, duration of olaparib use, CBC data, peripheral smear/RBC morphology data, Vitamin B12, folic acid levels, iron studies with ferritin, reticulocyte count, LDH levels, haptoglobin levels, TSH levels, any treatment administered for hematological toxicities including nutritional supplementation or blood product transfusion, dose reductions or cessation of olaparib use and indication for such intervention were collected for all patients.

[2] = test system: gBRCA-mutated advanced ovarian cancer; details: Phase II trials, cited from earlier work
[3] = Serum folic acid level in olaparib-treated cancer patients (chart review / case series); assay type: in vivo, human; details: for Folic Acid Level: on olaparib, reference range 7.0-31.4 ng/mL
Protocol: as §1

[4] = Hematologic toxicity (Hgb, MCV, other abnormalities, transfusion, dose reduction) in olaparib-treated patients (chart review / case series); assay type: in vivo, human; details: for Transfusion requirement: secondary to anemia noted after administration of Olaparib; for Transfusion required: secondary to anemia noted while patient receiving olaparib
Protocol: as §1

[5] = cited from earlier work
[6] = Hellman, 1964; cited from earlier work
[7] = Response to folic acid supplementation in patients on olaparib; assay type: in vivo, human; details: for Response to folic acid supplementation: on olaparib
Protocol: as §1

[8] = Table 3a, patient/age c1 A/62, c2 B/78, c3 C/63, c4 D/57
[9] = Table 3b, patient/age c1 E, c2 F, c3 G, c4 H
[10] = Table 1, patient/age c1 A/61, c2 B/78, c3 C/63, c4 D/57
[11] = Table 2a, patient/age c1 A/61, c2 B/78, c3 C/63, c4 D/57
[12] = Table 2b, patient/age c1 E, c2 F, c3 G, c4 H

O=C(c1cc(Cc2n[nH]c(=O)c3ccccc23)ccc1F)N1CCN(C(=O)C2CC2)CC1 [olaparib, 4-[(3-[(4-cyclopropylcarbonyl)piperazin-4-yl]carbonyl)-4-fluorophenyl]methyl(2H)-phthalazin-1-one]
Treatment outcome: discontinued because of [1, 8]: progression; also recorded: refractory anemia; also recorded: diarrhea
Treatment outcome: treatment stopped after ([1]; Table 3b, patient E/73): after 20 days
Treatment outcome: discontinued because of / status [1, 9]: months; ongoing; also recorded: progression
progression-free survival ([2]; advanced ovarian cancer): significantly prolonged
overall response rate (ORR) ([2]; gBRCA-mutated advanced ovarian cancer, three or more previous lines of chemotherapy): 34%
folic acid level (severe folic acid deficiency) in three additional patients ([3]; 3 other women, after taking olaparib for at least four weeks): < 1.6 ng/mL
folate level ([3]; Case report, Patient A on olaparib, Normal: 7-31.4 ng/mL): < 1.6 ng/mL
folic acid level (severe folic acid deficiency) ([3]; Patient B on olaparib): < 1.6 ng/mL
folic acid level (severe folic acid deficiency) ([3]; Patient C, approximately 4 weeks after starting olaparib): < 1.6 ng/mL
folic acid level (severely low) ([3]; Patient D on olaparib): 1.6 ng/mL
Folic Acid Level [3, 10]: <1.6 ng/mL and 1.6 ng/mL
Folic Acid Level [3, 11]: <1.6 ng/mL and 1.6 ng/mL
Folic Acid Level [3, 12]: 4.9 ng/mL and 5.2 ng/mL and 3.7 ng/mL and 6.2 ng/mL
folate level after initiation of olaparib ([3]; available laboratory data of the case series): drops precipitously within weeks
patients who developed transfusion-dependent anemia ([4]; 4 cases, in the course of treatment with olaparib): Three of the four
hgb (severe anemia) ([4]; Case report, Patient A, after 5 weeks of olaparib therapy, requiring blood transfusion): 6.6 g/dL
MCV (macrocytic anemia) ([4]; Case report, Patient A, at the time of Hematology evaluation): 110.7 fL
Hgb (macrocytic anemia) ([4]; Case report, Patient A, at the time of Hematology evaluation, olaparib reduced to 100 mg BID): 9.0 g/dL
Hgb (acute decrease) ([4]; Patient B, five weeks after starting olaparib, from 8 g/dL, requiring blood transfusion): 6.8 g/dL
Hgb (further decrease) ([4]; Patient C on olaparib, two weeks after start of folic acid 1 mg daily, requiring blood transfusion): 6.3 g/dL
Hgb (drop in baseline) ([4]; Patient C, approximately 4 weeks after starting olaparib, from 14 g/dL): 10 g/dL
Hgb (mild anemia) ([4]; Patient D, while on olaparib for 6 months): 9 to 10 g/dL
Dose Reduction or Delay of Olaparib/Cause ([4]; Table 1, patient/age c1 A/61, c2 B/78, c3 C/63, c4 D/57, cause of dose change): anemia
Dose Reduction or Delay of Olaparib/Cause ([4]; Table 1, patient/age c1 A/61, c2 B/78, c3 C/63, c4 D/57, dose reduced or delayed): Yes/ and No
Other Hematologic Abnormalities ([4]; Table 1, patient/age c1 A/61, c2 B/78, c3 C/63, c4 D/57, noted at time of initial Hematology assessment): Leukopenia and None and Thrombo-
Hgb Nadir ([4]; Table 1, patient/age c1 A/61, c2 B/78, c3 C/63, c4 D/57, on olaparib, reference range 12.0-16.0 g/dL): 6.6 g⁻¹ dL⁻¹ and 6.3 g⁻¹ dL⁻¹ and 8.8 g⁻¹ dL⁻¹
MCV Nadir ([4]; Table 1, patient/age c1 A/61, c2 B/78, c3 C/63, c4 D/57, on olaparib, reference range 82.0-103.0 fL): 110.7 fL and 102.0 fL and 91.6* fL and 98.1 fL
Transfusion requirement [4, 10]: Yes and No
Dose Reduction or Delay of Olaparib/Cause [4, 11]: Yes, anemia and Yes, and No and anemia
Other Hematologic Abnormalities ([4]; Table 2a, patient/age c1 A/61, c2 B/78, c3 C/63, c4 D/57, noted at time of initial Hematology assessment): Leukopenia; and None and Thrombo-
Hgb Nadir ([4]; Table 2a, patient/age c1 A/61, c2 B/78, c3 C/63, c4 D/57, on olaparib, reference range 12.0-16.0 g/dL): 6.6 g⁻¹ dL⁻¹ and 6.3 g⁻¹ dL⁻¹ and 8.8 g⁻¹ dL⁻¹
MCV Nadir ([4]; Table 2a, patient/age c1 A/61, c2 B/78, c3 C/63, c4 D/57, on olaparib, reference range 82.0-103.0 fL): 110.7 fL and 102.0 fL and 91.6* fL and 98.1 fL
Transfusion requirement [4, 11]: Yes and No
Dose Reduction or Delay of Olaparib/Cause [4, 12]: No and Yes, neutropenia, and Yes, folic acid and anemia, fatigue, and dyspnea
Other Hematologic Abnormalities ([4]; Table 2b, patient/age c1 E, c2 F, c3 G, c4 H, noted at time of initial Hematology assessment): Leukopenia;; also recorded: Leukopenia; also recorded: Thrombocytopenia
MCV Nadir ([4]; Table 2b, patient/age c1 E, c2 F, c3 G, c4 H, on olaparib, reference range 82.0-103.0 fL): 112.0 fL and 115.8 fL and 93.2 fL and 98.9 fL
Transfusion requirement [4, 12]: No and Yes
Dose Reduction or Delay of Olaparib/Cause [4, 8]: Yes/anemia and No
Hgb Nadir ([4]; Table 3a, patient/age c1 A/62, c2 B/78, c3 C/63, c4 D/57, lowest value documented while receiving olaparib, reference range 12.0 to 16.0 g/dL): 6.6 g⁻¹ dL⁻¹ and 6.3 g⁻¹ dL⁻¹ and 8.8 g⁻¹ dL⁻¹
Other Hematologic Abnormalities ([4]; Table 3a, patient/age c1 A/62, c2 B/78, c3 C/63, c4 D/57, noted at time of initial hematologic assessment): Thrombo- and Leukopenia; and None
Transfusion required [4, 8]: Yes and No
MCV Nadir ([4]; Table 3a, patient/age c1 A/62, c2 B/78, c3 C/63, c4 D/57, while receiving olaparib, reference range 82.0 to 103.0 fL): 110.7 fL and 102.0 fL and 91.6 fL and 98.1 fL
Hgb Nadir ([4]; Table 3b, patient/age c1 E, c2 F (200 mg once per day), c3 G, c4 H (metastatic breast cancer), lowest value while receiving olaparib, reference range 12.0 to 16.0 g/dL): 10.8 g⁻¹ dL⁻¹ and 8.1 g⁻¹ dL⁻¹ and 12.2 g⁻¹ dL⁻¹ and 10.4 g⁻¹ dL⁻¹
Dose Reduction or Delay of Olaparib/Cause ([4]; Table 3b, patient/age c1 E, c2 F (reduced dose 200 mg once per day from the onset), c3 G/52, c4 H/35): No and No^k and Yes/rash
Other Hematologic Abnormalities ([4]; Table 3b, patient/age c1 E, c2 F, c3 G, c4 H, noted at time of initial hematologic assessment): Leukopenia; and None and Thrombo-
Transfusion required [4, 9]: No
MCV Nadir ([4]; Table 3b, patient/age c1 E, c2 F, c3 G, c4 H, while receiving olaparib, reference range 82.0 to 103.0 fL): 105.6 fL and 103.1 fL and 93.5 fL and 85.8 fL
myelodysplastic syndrome/Acute Myeloid Leukemia, olaparib-treated patients ([5]; Olaparib PI): 2%
adverse reactions leading to discontinuation of olaparib, patients ([5]; clinical trials (Olaparib PI)): 9%
adverse reactions leading to dose interruptions, patients ([5]; clinical trials (Olaparib PI)): 26%
adverse reactions leading to dose reductions, patients ([5]; clinical trials (Olaparib PI)): 15%

CN(Cc1cnc2nc(N)nc(N)c2n1)c1ccc(C(=O)N[C@@H](CCC(=O)O)C(=O)O)cc1 [Methotrexate]
serum folate level [6]: variably decreased

Nc1nc2ncc(CNc3ccc(C(=O)N[C@@H](CCC(=O)O)C(=O)O)cc3)nc2c(=O)[nH]1 [folic acid]
anemia and macrocytosis after folic acid supplementation ([7]; Patient A on olaparib, oral folic acid 1 mg daily): improved
Hgb after folic acid supplementation ([7]; Patient B, two weeks after starting folic acid 1 mg daily, no longer required blood transfusions): markedly improved
folic acid level after supplementation ([7]; Patient C on olaparib, two weeks of folic acid 1 mg daily, minimally increased from prior value): 2.9 ng/mL
folic acid level after supplementation ([7]; Patient C, folic acid supplementation increased to 2 mg TID): normalized
Hgb stabilized after supplementation ([7]; Patient C, folic acid supplementation increased to 2 mg TID, olaparib briefly held): around 9 g/dL
folic acid level after supplementation ([7]; Patient D on olaparib, folic acid 1 mg daily): subsequent improvement
Response to folic acid supplementation ([7]; Table 1, patient/age c1 A/61, c2 B/78, c3 C/63, c4 D/57, improvement of folic acid level to within the reference range (≥7.0 ng/mL)): Yes
Response to folic acid supplementation ([7]; Table 2a, patient/age c1 A/61, c2 B/78, c3 C/63, c4 D/57, improvement of folic acid level to within the reference range (≥7.0 ng/mL)): Yes and No
Response to folic acid supplementation ([7]; Table 2b, patient/age c1 E, c2 F, c3 G, c4 H, improvement of folic acid level to within the reference range (≥7.0 ng/mL)): Yes
Response to folic acid supplementation ([7]; Table 3a, patient/age c1 A/62, c2 B/78, c3 C/63, c4 D/57, improvement of folic acid level to within reference range): Yes
Response to folic acid supplementation ([7]; Table 3b, patient/age c2, improvement of folic acid level to within reference range): Yes
correction of olaparib-induced folic acid deficiency ([7]; folic acid supplementation at variable doses): can correct
